Experimental data as given in article PMC12186490, “Environmental pH controls antimicrobial production by human probiotic Streptococcus salivarius” (Journal of Bacteriology, 2025).

System: sar-BGC (sarD) expression in WT SAL
Assay: sarD transcript levels by qRT-PCR after lactate supplementation of WT SAL
Assay type: cell-based, Streptococcus salivarius K12
Conditions: WT SAL at late-exponential growth (A600 ~ 2.0), fresh THY with sodium lactate, 15 minutes; relative to WT-LE growth; three biological replicates
Method: Fig 2 SAL upregulates sar-BGC expression in concert with environmental acidification. (A) Wild-type (WT) SAL was grown in THY broth, and samples were collected at the indicated time points. Growth medium pH, sar-BGC (sarD) transcript levels, and bacterial growth by absorption at wavelength 600 nm (A600) were determined. Right y-axes represent fold change in sar-BGC transcript levels (green) and A600 (red), whereas the left y-axis represents pH of the growth medium (black). Fold changes in transcript levels at indicated time points relative to starting culture (time point t = 0 h) are shown. Data are mean ± standard deviation for three biological replicates. (B) WT SAL grown in THY to late-exponential growth phase (LE, A600 ~ 2.0) was harvested by centrifugation, suspended in THY broth adjusted to indicated pH, and incubated for 15 minutes. […] P values assessed by t-test analyses relative to WT LE growth are shown (n.s, not significant; *, P < 0.05; ****, P < 0.0001). […]
SAL and other lactic acid bacteria acidify their environment via lactic acid production during their growth. […] After 15 min incubation, cells were collected and sarD transcript levels in each pH were assessed by quantitative real-time PCR (qRT-PCR). […] To test whether lactate acts as a signal for the induction of sar-BGC expression, we assessed sarD transcript levels in SAL grown in the presence of lactate. […]

With `CC(O)C(=O)[O-].[Na+]` (stereo not shown) [lactate, sodium lactate] the “induction of sar-BGC expression (sarD transcript levels)” value was “did not induce sar-BGC expression”.
